Literature values, collected in patent publication US6776977B2, “Polypodal chelants for metallopharmaceuticals” (Bristol-Myers Squibb Pharma Company, priority 2001, dated 2004).

Details: decomposition under acidic conditions

Kobs: 0.0012 s⁻¹
SMILES: O=C([O-])CN(CCN(CC(=O)[O-])CC(=O)[O-])CCN(CC(=O)[O-])CC(=O)[O-].[Gd+3] [Gd(DTPA)^2−]
